Laboratory results as given in patent publication US20260097091A1, “ADMINISTRATION OF GLUTATHIONE TRISULFIDE TO AMELIORATE PERIPHERAL NEUROPATHY” (The General Hospital Corporation, priority 2022, published 2026).

What was measured:
primary DRG neurons = primary DRG neurons exposed to paclitaxel: Sholl analysis and axonal mitochondria (NF200, MitoTracker); assay type: cell-based, mice
Experimental: Primary DRG neurons were prepared from 8 to 10-week old mice as described previously. Briefly, lumber DRG (L1 to L6) were isolated from mice and centrifuged at 176×g (1000 rpm) for 3 minutes. After aspirating the solution, DRG were incubated with Dispase-II Solution (Sigma-Aldrich, Cat No. SCM133) and collagenase type II (Worthington, Cat No. LS004176) for 70 minutes and with 0.25% trypsin for 5 minutes. Subsequently triturated by frame polished glass pipet, neurons were seeded on a 12-well plate with 15 mm coverslip. Cells were incubated in Neurobasal A-medium with 2% B27 supplement (Gibco, Cat No. 10889038), 1% penicillin/streptomycin, 1% Glutamax (Gibco, Cat No. 35050061), and nerve growth factor (Sigma Aldrich, Cat No. N6009) for 24 hours. After 24 hours, they were exposed to 100 nM of paclitaxel with or without 500 nM of GSSSG or PTNSSS for one hour and 50 nM of MitoTracker (Invitrogen, Cat No. M22426) for 30 minutes. After fixing by 4% paraformaldehyde for 10 minutes at room temperature, cells were immersed in 0.2% Triton X-100 in PBS for 7 minutes and washed by PBS. They were incubated with anti-NF200 antibody (1:400, mouse, Sigma-Aldrich, Cat No. N0142) overnight at 4° C. and with the secondary antibody (1:1000, donkey anti-mouse, Abcam, Cat No. ab150105) for one hour at room temperature. After being covered with fluoroshield mounting medium with DAPI (Sigma-Aldrich, Cat No. F6057), 9-10 cells per group (3 mice per group) were imaged on confocal microscopy (ZEISS LSM 800, Carl Zeiss, Thornwood, NY) using a 63× oil immersion objectives lens with 1,024×1,024 pixels image size.
Effects of PTNSSS and GSSSG on axonal integrity were examined in cultured murine primary DRG neurons incubated with paclitaxel. […] Morphology of neurons, the number, length, and branching of neurites, was analyzed by Sholl analysis implemented in ImageJ [30]. Sholl analysis draws equally spaced circles from the soma and counts the number of intersections between neurites and circles to quantify neuronal morphology (FIG. 8C).

[1] = tested on: MDA-MB-231 human breast cancer cells; test: MDA-MB-231 live cell count by trypan blue exclusion assay; assay type: cell-based; conditions: 24 hours
Experimental: To examine whether co-administration of GSSSG affects anti-tumor effects of paclitaxel, we conducted experiments using MDA-MB-231, a human breast cancer cell line (HTB-26, ATCC). Cells were cultured in the medium of 90% RPMI1640 (Corning, Cat No. 10-040-CV), 10% FBS, and 1% penicillin/streptomycin. After being seeded into a 96-well plate at the density of 20,000/well and cultured overnight, they were exposed to different concentrations of paclitaxel (0.125 μM, 0.25 μM, 0.5 μM, 1 μM, and 2 μM) and incubated for 24 hours. Cell viability was evaluated by LDH Cytotoxicity Detection Kit (Roche, Cat No. 11644793001). Briefly, a plate was centrifuged at 250×g for 10 minutes. […] After mixing with assay enzyme for 30 minutes at 25° C., absorbance was measured at wavelength 492 nm to determine cell viability. Inhibitory effects of paclitaxel were calculated by half-maximal inhibitory concentration (IC50). […] After being stripped by 0.25% trypsin, live cells were counted under 0.04% trypan blue. Five wells were evaluated per group.
Sample sizes for behavior test were chosen based on a previous study. All values are expressed as mean±standard deviation (SD). The behavior test results were analyzed in the mixed effect model because the behavior was measured repeatedly over five times from the same mice, and individual differences at baseline were confirmed in the preliminary study. […]

[2] = 500 nM GSSSG with 100 nM paclitaxel for one hour, vs paclitaxel

Row | number of mitochondria in axons (primary DRG neurons; 100 nM paclitaxel for one hour) | elongation of axons (Sholl analysis) (primary DRG neurons; 100 nM paclitaxel for one hour, vs control) | Structure (SMILES) | ratio of the total mitochondria length to axonal length (primary DRG neurons; 100 nM paclitaxel for one hour) | number of alive MDA-MB-231 cells ([1]; 2 μM paclitaxel alone) | axonal elongation (Sholl analysis) (primary DRG neurons; 500 nM GSSSG with 100 nM paclitaxel for one hour, >160 μm from soma, vs paclitaxel) | number of mitochondria in axons (primary DRG neurons; [2]) | ratio of the total mitochondria length to axonal length (primary DRG neurons; [2]) | number of alive MDA-MB-231 cells ([1]; 2 μM paclitaxel + 10 μM GSSSG)
1 | decreased | hampered elongation of axons | CC(=O)O[C@H]1C(=O)[C@@]2(C)[C@H]([C@H](OC(=O)c3ccccc3)[C@]3(O)C[C@H](OC(=O)[C@H](O)[C@@H](NC(=O)c4ccccc4)c4ccccc4)C(C)=C1C3(C)C)[C@]1(OC(C)=O)CO[C@@H]1C[C@@H]2O [paclitaxel, Paclitaxel, reference compound] | decreased the ratio of the total mitochondria length to axonal length | 44.9 % of control cells |  |  |  | 
2 |  |  | N[C@@H](CCC(=O)N[C@@H](CSSSC[C@H](NC(=O)CC[C@H](N)C(=O)O)C(=O)NCC(=O)O)C(=O)NCC(=O)O)C(=O)O [GSSSG, glutathione trisulfide] |  |  | restored axonal elongation | prevented paclitaxel-induced decrease | prevented paclitaxel-induced decrease of the ratio of the total mitochondria length to axonal length | 48.3 % of control cells
